A short description of the experiment: Agonist activity at VDR in human HL60 cells assessed as induction of cell differentiation by measuring increase in NBT positive cells by Wright staining based microscopic method.
In general, EC50 refers to the concentration that produces a half-maximal response. `CCn1cc(C(CC)(CC)c2ccc(C#CC(O)(CC)CC)c(C)c2)cc1C(=O)NCCCN(C)C`: the concentration for a half-maximal effect (EC50) is 142 nM.

With `CCn1cc(C(CC)(CC)c2ccc(C#CC(O)(CC)CC)c(C)c2)cc1C(=O)NCCC(=O)O`, the concentration giving a half-maximal response (EC50) was above 50 nM. On to `CCn1cc(C(CC)(CC)c2ccc(C#CC(O)(CC)CC)c(C)c2)cc1C(=O)NCC(=O)O`, for which the EC50 is 54 nM. Take `CCn1cc(C(CC)(CC)c2ccc(C#CC(O)(CC)CC)c(C)c2)cc1C(=O)OCCO`: the concentration for a half-maximal effect (EC50) is 13 nM. For `CCn1c(C(=O)N[C@H](C(=O)O)C(C)C)ccc1C(CC)(CC)c1ccc(C#CC(O)(CC)CC)c(C)c1`, the half-maximal effective concentration (EC50) stood at 18 nM.

With `CCn1cc(C(CC)(CC)c2ccc(C#CC(O)(CC)CC)c(C)c2)cc1C(=O)NCCN(C)C`, the EC50 is 19 nM.

With `CCn1c(C(=O)On2nnc3ccccc32)ccc1C(CC)(CC)c1ccc(C#CC(O)(CC)CC)c(C)c1`, the EC50 was above 50 nM. `CCn1c(C(=O)NCCCO)ccc1C(CC)(CC)c1ccc(C#CC(O)(CC)CC)c(C)c1`: the EC50 was 137 nM.

As to `CCN(CC)CCNC(=O)c1ccc(C(CC)(CC)c2ccc(OCC(O)C(C)(C)C)c(C)c2)n1CC` (stereo not drawn), the half-maximal effective concentration (EC50) came to 6.5 nM. Regarding `CCn1c(C(=O)NCCC(=O)O)ccc1C(CC)(CC)c1ccc(C#CC(O)(CC)CC)c(C)c1`, the EC50 came to 293 nM. Under `CCn1cc(C(CC)(CC)c2ccc(C#CC(O)(CC)CC)c(C)c2)cc1C(=O)NCC(=O)OC` stands 288 nM. For the compound `CCCCC(=O)c1cc(C(CC)(CC)c2ccc(C#CC(O)(CC)CC)c(C)c2)cn1CC`, the EC50 was above 50 nM.

`CCn1cc(C(CC)(CC)c2ccc(C#CC(O)(CC)CC)c(C)c2)cc1C(=O)N[C@@H](C(=O)O)C(C)C`: the EC50 amounted to 68 nM.

With `C#CCCOC(=O)c1ccc(C(CC)(CC)c2ccc(C#CC(O)(CC)CC)c(C)c2)n1CC`, the EC50 is above 50 nM. Under `CCn1cc(C(CC)(CC)c2ccc(C#CC(O)(CC)CC)c(C)c2)cc1C(=O)N[C@H](C(=O)O)C(C)C` stands 13 nM; under `CCn1c(C(=O)NCC(=O)O)ccc1C(CC)(CC)c1ccc(C#CC(O)(CC)CC)c(C)c1`, 9.4 nM.

For `CCN(CC)CCNC(=O)c1cc(C(CC)(CC)c2ccc(C#CC(O)(CC)CC)c(C)c2)cn1CC`, the EC50 amounted to 7 nM. Consider `CCN(CC)CCCNC(=O)c1ccc(C(CC)(CC)c2ccc(C#CC(O)(CC)CC)c(C)c2)n1CC`, for which the 50% effective concentration (EC50) was determined as 69 nM. Under `CCCCC(=O)c1ccc(C(CC)(CC)c2ccc(C#CC(O)(CC)CC)c(C)c2)n1CC` stands above 50 nM. As for `CCN(CC)CCNC(=O)c1ccc(C(CC)(CC)c2ccc(C#CC(O)(CC)CC)c(C)c2)n1CC`, the concentration giving a half-maximal response (EC50) was 10 nM. Take `CCn1c(C(=O)NCCC(=O)OC)ccc1C(CC)(CC)c1ccc(C#CC(O)(CC)CC)c(C)c1`: the concentration for a half-maximal effect (EC50) is above 50 nM.

`CCn1c(C(=O)NCc2ccc(OC)cc2)ccc1C(CC)(CC)c1ccc(C#CC(O)(CC)CC)c(C)c1`: the EC50 was above 50 nM. Under `CCn1cc(C(CC)(CC)c2ccc(C#CC(O)(CC)CC)c(C)c2)cc1C(=O)N[C@@H](C)CO` stands 7.3 nM.

For the origin of these results see BindingDB's records for doi:10.1016/j.bmcl.2017.01.084 (China Pharmaceutical University, 2017).
